Measurements: patent publication US9617267B2, “Compounds and methods for kinase modulation, and indications therefor” (Plexxikon Inc., priority 2009, dated 2017)
pIC50: −log10 of the molar value. Like-named read-outs stand apart in the source and are kept apart here.

Experiments:
CYP2C19 = CYP2C19 (Homo sapiens (Human), UniProt P33261); experiment: CYP enzyme inhibition, fluorescent substrate (CEC)
Summary of the method: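 Human CYP activity was followed by the fluorescence of the metabolized product of a known substrate, which falls as metabolism is inhibited. Compounds from 100 mM DMSO stocks were serially diluted 1:1 over 10 points in co-factor mix and preincubated 10 min at 37 °C. IC50 was fitted from signal versus concentration.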

CYP3A4(BFC) = CYP3A4(BFC) (Homo sapiens (Human), UniProt P08684); experiment: CYP enzyme inhibition, fluorescent substrate BFC
Method: (§1) CYP (Cytochrome P450) enzymes are the major drug metabolizing enzymes present in the liver. The inhibition of CYP enzyme activity (IC50) for each of CYP1A2, CYP2C19, CYP2C9, CYP2D6, CYP3A4(BFC) and CYP3A4(BQ) is determined for compounds, where inhibition of metabolism of a known substrate leads to a decrease in the fluorescence of the metabolized product. The fluorescence of the product is monitored as a function of compound concentration.
(§2) Compounds are dissolved in dimethyl sulfoxide to a concentration of 100 mM. These are diluted 1 μL into 82 μL of acetonitrile. […] These are then serially diluted 1:1 (160 μL to 160 μL co-factor mix) for a total of 10 points. A 10 μL aliquot of this final mixture is dispensed into 384 well assay plates and incubated for 10 minutes at 37° C. […] Assay plates are incubated at 37° C. […] The signal versus compound concentration is used to determine the IC50. The enzymes and substrates for this assay are obtained from BD Biosciences.

CYP2C9 = CYP2C9 (Homo sapiens (Human), UniProt P11712); experiment: CYP enzyme inhibition, fluorescent substrate (MFC); settings: read-out: Cyp IC50 2C9; CYP2C9, substrate MFC
Method: as §1, §2

c-Raf-1 = c-Raf-1 (Homo sapiens, UniProt P04049); experiment: c-Raf-1 kinase activity biochemical assay (AlphaScreen, biotin-MEK1 phosphorylation)
Summary of the method: (§3)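 Biotin-MEK1 phosphorylation measured after 45 min kinase reaction at RT with 100 μM ATP final; compounds tested at 8 points from 0.1 mM DMSO stock.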

[1] = Relative solubility by turbidity threshold concentration in aqueous buffers (pH 1.5, 4.5, 6.8, 7.4); assay type: physicochemical; settings: for turbidity threshold (L, M, H) 1.4: pH 1.4 [sic] (method: SGF pH 1.5); for turbidity threshold (L, M, H) 4.5: pH 4.5 (SIF); for turbidity threshold (L, M, H) 6.8: pH 6.8 (SIF); for turbidity threshold (L, M, H) 7.4: pH 7.4 (HEPES)
Summary of the method: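 Solubility class (high >250 μM, moderate 31.3–250 μM, low <31.3 μM) comes from the concentration where absorbance reaches a 0.01 threshold, averaged across 490/535/650 nm. Samples were compound dilutions from DMSO stock, 1 μL into 99 μL buffer at pH 1.5, 4.5, 6.8 or 7.4.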

CYP2D6 = CYP2D6 (Homo sapiens (Human), UniProt P10635); experiment: CYP enzyme inhibition, fluorescent substrate (AMMC); assay type: in vitro ADME; settings: read-out: Cyp IC50 2D6
Method: as §1
(§4) Compounds are dissolved in dimethyl sulfoxide to a concentration of 100 mM. These are diluted 1 μL into 82 μL of acetonitrile. An 11 μL aliquot of this solution is then added to 204 μL of cofactor mix (1.3% NADPH Regeneration system Solution A, 1.04% NADPH Regeneration system Solution B from BD Biosciences, 5% acetonitrile and 0.05% dimethyl sulfoxide). These are then serially diluted 1:1 (160 μL to 160 μL co-factor mix) for a total of 10 points. A 10 μL aliquot of this final mixture is dispensed into 384 well assay plates and incubated for 10 minutes at 37° C. Enzyme and substrate mix (10 μL; 0.5 pmol CYP1A2/5 μM CEC; 1.0 pmol CYP2C9/75 μM MFC; 0.5 pmol CYP2C19/25 μM CEC; 1.5 pmol CYP2D6/1.5 μM AMMC; 1.0 pmol CYP3A4/50 μM BFC; or 1.0 pmol CYP3A4/40 μM BQ) is added to these assay plates. Assay plates are incubated at 37° C. (CYP1A2-15 min; CYP2C9-45 min; CYP2C19, 2D6 and 3A4-30 min) and read in a Tecan Safire 2 plate reader (CYP1A2, 2C19 and 3A4 409 ex/460 em; CYP2C9 and 2D6 409 ex/530 em). The signal versus compound concentration is used to determine the IC50. The enzymes and substrates for this assay are obtained from BD Biosciences.

B-Raf V600E = B-Raf V600E (Homo sapiens (Human), UniProt P15056, V600E); experiment: B-Raf V600E kinase activity biochemical assay (AlphaScreen, biotin-MEK1 phosphorylation); settings: for IC50: B-Raf V600E; for Biochemical activity ratio V600E/C: ratio of IC50 B-Raf V600E / c-Raf-1
Summary of the method: as §3

CYP1A2 = CYP1A2 (Homo sapiens (Human), UniProt P05177); experiment: CYP enzyme inhibition, fluorescent substrate (CEC)
Method: as §1, §4

B-Raf [2] = experiment: B-Raf kinase activity biochemical assay (AlphaScreen, biotin-MEK1 phosphorylation); settings: for Biochemical activity ratio B/V600E: ratio of IC50 B-Raf / B-Raf V600E; for Biochemical activity ratio B/C: ratio of IC50 B-Raf / c-Raf-1
Summary of the method: as §3

B-Raf [3] = molecular target: B-Raf (Homo sapiens (Human), UniProt P15056); experiment: as above; settings: B-Raf
Summary of the method: as §3

[4] = read-out: Cyp IC50 3A4(BFC), CYP3A4, substrate BFC

Chain of CYP1A2 (P05177 whole entry): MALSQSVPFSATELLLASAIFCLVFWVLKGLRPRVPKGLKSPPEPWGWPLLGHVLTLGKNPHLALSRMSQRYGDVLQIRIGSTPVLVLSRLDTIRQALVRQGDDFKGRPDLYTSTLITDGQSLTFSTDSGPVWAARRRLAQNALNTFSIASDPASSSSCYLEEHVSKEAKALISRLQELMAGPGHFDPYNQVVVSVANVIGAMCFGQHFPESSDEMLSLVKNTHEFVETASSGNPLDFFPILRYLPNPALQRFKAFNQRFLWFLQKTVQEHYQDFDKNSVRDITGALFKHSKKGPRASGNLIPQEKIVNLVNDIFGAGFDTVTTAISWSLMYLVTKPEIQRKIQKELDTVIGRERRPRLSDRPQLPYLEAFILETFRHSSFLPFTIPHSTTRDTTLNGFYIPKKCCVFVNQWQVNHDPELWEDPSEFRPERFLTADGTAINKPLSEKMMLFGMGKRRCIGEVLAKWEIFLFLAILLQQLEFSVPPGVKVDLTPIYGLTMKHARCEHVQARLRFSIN
Chain of CYP2C19 (P33261 whole entry): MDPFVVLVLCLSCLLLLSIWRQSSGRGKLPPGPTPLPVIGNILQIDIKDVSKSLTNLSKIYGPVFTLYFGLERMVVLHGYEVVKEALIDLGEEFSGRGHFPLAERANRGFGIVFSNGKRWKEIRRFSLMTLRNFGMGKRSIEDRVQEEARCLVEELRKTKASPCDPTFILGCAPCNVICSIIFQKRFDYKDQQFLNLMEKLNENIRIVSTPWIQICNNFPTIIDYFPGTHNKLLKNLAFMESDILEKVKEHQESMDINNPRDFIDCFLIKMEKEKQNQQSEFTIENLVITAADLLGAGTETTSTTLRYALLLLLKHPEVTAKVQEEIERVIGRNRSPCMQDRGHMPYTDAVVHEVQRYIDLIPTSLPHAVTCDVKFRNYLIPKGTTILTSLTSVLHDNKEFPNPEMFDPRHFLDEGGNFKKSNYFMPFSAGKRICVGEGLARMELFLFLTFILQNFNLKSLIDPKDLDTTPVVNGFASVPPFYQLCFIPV
Chain of CYP3A4(BFC) (P08684 whole entry): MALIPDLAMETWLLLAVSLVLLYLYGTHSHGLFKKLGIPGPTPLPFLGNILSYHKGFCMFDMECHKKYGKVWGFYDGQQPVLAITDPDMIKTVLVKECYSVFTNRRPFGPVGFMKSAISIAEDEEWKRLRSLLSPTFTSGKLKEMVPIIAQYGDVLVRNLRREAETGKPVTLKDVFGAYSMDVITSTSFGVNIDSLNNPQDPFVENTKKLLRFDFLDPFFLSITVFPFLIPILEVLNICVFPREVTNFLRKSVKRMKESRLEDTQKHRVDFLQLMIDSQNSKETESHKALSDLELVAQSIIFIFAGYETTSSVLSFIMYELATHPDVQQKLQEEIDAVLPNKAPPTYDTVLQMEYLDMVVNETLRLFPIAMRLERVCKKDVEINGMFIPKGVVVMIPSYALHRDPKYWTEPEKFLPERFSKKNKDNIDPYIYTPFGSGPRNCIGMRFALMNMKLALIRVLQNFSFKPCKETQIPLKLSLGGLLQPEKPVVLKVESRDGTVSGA
Chain of CYP2C9 (P11712 whole entry): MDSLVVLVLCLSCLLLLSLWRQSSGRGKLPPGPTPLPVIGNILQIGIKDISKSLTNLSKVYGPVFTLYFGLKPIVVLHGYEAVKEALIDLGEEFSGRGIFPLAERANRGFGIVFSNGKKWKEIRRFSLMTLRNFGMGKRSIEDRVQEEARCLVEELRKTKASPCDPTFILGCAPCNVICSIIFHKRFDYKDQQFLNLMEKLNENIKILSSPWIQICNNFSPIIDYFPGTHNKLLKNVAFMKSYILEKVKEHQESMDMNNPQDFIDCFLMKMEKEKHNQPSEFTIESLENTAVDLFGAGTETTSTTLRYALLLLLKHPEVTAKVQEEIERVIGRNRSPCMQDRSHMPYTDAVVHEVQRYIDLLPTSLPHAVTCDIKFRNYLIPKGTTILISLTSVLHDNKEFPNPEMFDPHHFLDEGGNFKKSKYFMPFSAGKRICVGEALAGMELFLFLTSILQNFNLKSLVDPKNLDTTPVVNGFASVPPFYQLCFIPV
Chain of c-Raf-1 (P04049 whole entry, looked up): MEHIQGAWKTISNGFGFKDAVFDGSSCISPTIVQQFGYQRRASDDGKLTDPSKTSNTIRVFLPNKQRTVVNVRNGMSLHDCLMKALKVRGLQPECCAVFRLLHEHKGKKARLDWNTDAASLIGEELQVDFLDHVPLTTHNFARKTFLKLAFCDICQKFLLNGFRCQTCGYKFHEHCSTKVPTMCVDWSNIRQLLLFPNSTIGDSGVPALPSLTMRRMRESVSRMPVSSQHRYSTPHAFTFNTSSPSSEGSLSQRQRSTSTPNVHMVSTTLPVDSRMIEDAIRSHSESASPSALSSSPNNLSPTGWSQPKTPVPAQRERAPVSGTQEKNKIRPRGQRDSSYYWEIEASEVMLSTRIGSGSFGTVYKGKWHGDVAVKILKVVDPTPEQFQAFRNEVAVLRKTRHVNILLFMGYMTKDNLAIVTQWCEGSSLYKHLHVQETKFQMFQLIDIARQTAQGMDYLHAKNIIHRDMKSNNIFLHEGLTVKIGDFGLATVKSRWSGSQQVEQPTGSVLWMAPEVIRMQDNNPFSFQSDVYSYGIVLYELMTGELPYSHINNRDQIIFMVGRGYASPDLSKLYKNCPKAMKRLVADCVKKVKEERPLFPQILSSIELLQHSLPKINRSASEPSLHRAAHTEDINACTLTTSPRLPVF
Chain of B-Raf V600E (P15056 whole entry V600E): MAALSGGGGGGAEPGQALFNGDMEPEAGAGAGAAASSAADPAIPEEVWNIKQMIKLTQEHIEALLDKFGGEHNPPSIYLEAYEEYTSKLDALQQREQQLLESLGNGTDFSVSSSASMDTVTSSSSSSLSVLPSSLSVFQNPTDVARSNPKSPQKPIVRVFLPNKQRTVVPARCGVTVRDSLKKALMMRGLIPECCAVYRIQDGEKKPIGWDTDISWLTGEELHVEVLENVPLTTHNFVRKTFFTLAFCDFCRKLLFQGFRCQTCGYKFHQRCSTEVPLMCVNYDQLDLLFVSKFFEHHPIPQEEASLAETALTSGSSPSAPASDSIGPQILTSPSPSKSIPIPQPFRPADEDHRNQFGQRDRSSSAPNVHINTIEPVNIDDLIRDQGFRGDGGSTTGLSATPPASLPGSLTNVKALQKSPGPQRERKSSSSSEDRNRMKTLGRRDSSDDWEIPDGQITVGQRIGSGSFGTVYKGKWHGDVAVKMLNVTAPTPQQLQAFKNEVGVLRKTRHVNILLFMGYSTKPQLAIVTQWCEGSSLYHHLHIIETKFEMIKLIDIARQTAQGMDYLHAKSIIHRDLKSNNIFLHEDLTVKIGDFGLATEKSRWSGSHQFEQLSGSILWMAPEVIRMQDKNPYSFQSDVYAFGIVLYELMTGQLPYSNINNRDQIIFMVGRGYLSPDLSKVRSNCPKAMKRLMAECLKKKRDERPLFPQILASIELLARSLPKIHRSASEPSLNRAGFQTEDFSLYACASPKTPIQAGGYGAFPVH
Chain of CYP2D6 (P10635 whole entry): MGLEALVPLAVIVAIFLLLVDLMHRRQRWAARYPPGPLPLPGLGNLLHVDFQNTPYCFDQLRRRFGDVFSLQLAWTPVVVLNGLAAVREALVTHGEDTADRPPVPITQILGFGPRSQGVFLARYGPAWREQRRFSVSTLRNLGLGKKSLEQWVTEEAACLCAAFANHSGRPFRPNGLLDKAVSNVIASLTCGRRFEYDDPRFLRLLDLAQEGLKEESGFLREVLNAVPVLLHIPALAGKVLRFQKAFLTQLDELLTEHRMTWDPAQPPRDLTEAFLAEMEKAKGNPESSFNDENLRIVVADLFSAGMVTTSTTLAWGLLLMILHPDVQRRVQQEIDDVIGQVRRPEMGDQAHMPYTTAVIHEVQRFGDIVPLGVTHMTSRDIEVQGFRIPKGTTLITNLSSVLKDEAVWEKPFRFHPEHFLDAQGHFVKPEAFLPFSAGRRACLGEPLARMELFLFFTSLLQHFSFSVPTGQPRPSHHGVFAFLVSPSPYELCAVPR
Chain of B-Raf (Homo sapiens (Human), UniProt P15056) (P15056 whole entry): as the sequence (P15056 whole entry V600E) above, with E600V counted along it

Compound | pIC50 (CYP2C19) | pIC50 (CYP3A4(BFC); [4]) | pIC50 (CYP2C9) | IC50 (c-Raf-1) [µM] | turbidity threshold (L, M, H) 1.4 [1] | turbidity threshold (L, M, H) 4.5 [1] | pIC50 (CYP2D6) | IC50 (B-Raf V600E) [µM] | Biochemical activity ratio V600E/C (B-Raf V600E) | pIC50 (CYP1A2; read-out: Cyp IC50 1A2, CYP1A2, substrate CEC) | Biochemical activity ratio B/V600E (B-Raf [2]) | Biochemical activity ratio B/C (B-Raf [2]) | IC50 (B-Raf [3]) [µM] | pIC50 (CYP2C19; read-out: Cyp IC50 2C19, CYP2C19, substrate CEC) | turbidity threshold (L, M, H) 6.8 [1] | turbidity threshold (L, M, H) 7.4 [1] | pIC50 (CYP1A2; human, 15 min) | pIC50 (CYP3A4(BFC))
CCCNc1ncnc2[nH]cc(C(=O)c3c(F)ccc(NS(=O)(=O)c4ccc(C(F)(F)F)cc4)c3F)c12 [P-1032, N-[2,4-Difluoro-3-(4-propylamino-7H-pyrrolo[2,3-d]pyrimidine-5-carbonyl)-phenyl]-4-trifluoromethyl-benzenesulfonamide] | 5.00 to 5.30 | < 5.00 | < 5.00 | < 0.1 | L (low solubility if the threshold concentration is <31.3 μM) | L (low solubility if the threshold concentration is <31.3 μM) | < 5.00 | < 0.1 | >10 | < 5.00 | 0.1-10 | >10 | < 0.1 |  |  |  |  | 
CCCS(=O)(=O)Nc1ccc(F)c(C(=O)c2c[nH]c3ncnc(Cl)c23)c1F [P-1033, Propane-1-sulfonic acid [3-(4-chloro-7H-pyrrolo[2,3-d]pyrimidine-5-carbonyl)-2,4-difluoro-phenyl]-amide] |  | < 5.00 | < 5.00 | < 0.1 | H (high solubility if the threshold concentration is >250 μm) | H (high solubility if the threshold concentration is >250 μm) | < 5.00 | < 0.1 | 0.1-10 |  | 0.1-10 | >10 | > 0.1 | < 5.00 | H (high solubility if the threshold concentration is >250 μm) | H (high solubility if the threshold concentration is >250 μm) | < 5.00 | 
CCCc1ccc(S(=O)(=O)Nc2ccc(F)c(C(=O)c3c[nH]c4ncnc(Cl)c34)c2F)cc1 [P-1034, N-[3-(4-Chloro-7H-pyrrolo[2,3-d]pyrimidine-5-carbonyl)-2,4-difluoro-phenyl]-4-propyl-benzenesulfonamide] | 5.00 to 5.30 |  | < 5.00 | < 0.1 | M (moderate solubility if the threshold concentration is 31.3 μM to 250 μM) | M (moderate solubility if the threshold concentration is 31.3 μM to 250 μM) | < 5.00 | > 0.1 | >10 |  | 0.1-10 | 0.1-10 | > 0.1 |  | M (moderate solubility if the threshold concentration is 31.3 μM to 250 μM) | M (moderate solubility if the threshold concentration is 31.3 μM to 250 μM) | < 5.00 | 5.00 to 5.30
O=C(c1c(F)ccc(NS(=O)(=O)c2ccc(C(F)(F)F)cc2)c1F)c1c[nH]c2ncnc(NC3CCCC3)c12 [P-1035, N-[3-(4-Cyclopentylamino-7H-pyrrolo[2,3-d]pyrimidine-5-carbonyl)-2,4-difluoro-phenyl]-4-trifluoromethyl-benzenesulfonamide] | 5.00 to 5.30 |  | < 5.00 | < 0.1 | L (low solubility if the threshold concentration is <31.3 μM) | L (low solubility if the threshold concentration is <31.3 μM) | < 5.00 | < 0.1 | >10 |  | 0.1-10 | >10 | < 0.1 |  | L (low solubility if the threshold concentration is <31.3 μM) | L (low solubility if the threshold concentration is <31.3 μM) | < 5.00 | 5.00 to 5.30
